The source of these data is paper PMC5707067, “Farnesyl phenolic enantiomers as natural MTH1 inhibitors from Ganoderma sinense” (Oncotarget, 2017).

Data set [1] relates to human hepatic cells (Lo2). Description: CCK8 cytotoxicity assay, Lo2. The settings on record: CCK8, 48 h, normal tissue cell line. Type of data set: cell-based. An excerpt:
(§1) The growth inhibitory effects of the isolated farnesyl phenolic compounds (1–8) against carcinoma cell lines [human osteosarcoma cells (U2OS), human colorectal carcinoma cells (SW620), human ES-2 ovarian carcinoma cells (ES-2)] and normal tissue cell lines [human hepatic cells (Lo2), African green monkey kidney vero cells (Vero)] were further investigated using CCK8 assay method (Table 3).
(§2) Carcinoma cell lines [human osteosarcoma cells (U2OS), human colorectal carcinoma cells (SW620), human ES-2 ovarian carcinoma cells (ES-2)] and normal tissue cell lines [human hepatic cells (Lo2), African green monkey kidney Vero cells (Vero)] The U2OS, SW620, ES-2, Lo2 and Vero were obtained from ATCC (Manassas, VA, USA). The SW620 and Vero cells were cultured in Roswell Park Memorial Institute medium (RPMI), with 10% fetal bovine serum (Hyclone) and 1% penicillin-streptomycin (Sigma). Lo2, U2OS and ES-2 cells were grown in Dulbecco's modified eagle medium (DMEM), with 10% fetal bovine serum (Hyclone) and 1% penicillin-streptomycin (Sigma). All of these cells were cultured at 37°C in a humidified atmosphere with 5% CO2. For CCK8 assay cytotoxicity evaluation of compounds, all cells were separately plated at a density of 1 × 10^4 cells/well in a 96 well plate. Cells were cultivated at 37°C in 5% CO2 atmosphere for 24 h, then medium in the wells was replaced with fresh medium containing compounds which were diluted in 8 dilution steps covering the range from 200 μM to 1.5625 μM. And DMSO was used as negative control. After 48 h incubation, 10 μL of CCK8 solution was added to each well. After 30 min, the optical density (OD) of each well was measured at wavelength of 450 nm on spectrophotometer. Data were corrected for background (no-cell control) and expressed as a percentage of the value for untreated cells. The IC50 values of the isolated compounds were derived from the mean OD values of the triplicate tests versus the drug concentration curves.
In general terms: Tetrazolium dyes change colour on reduction, which living cells bring about.

The subject of data set [2] is human ES-2 ovarian carcinoma cells (ES-2). As to the kind of experiment: CCK8 cytotoxicity assay, ES-2. Format: cell-based. The settings on record: CCK8, 48 h, carcinoma cell line.
From the text: as §1, §2

Data set [3] has as its system human colorectal carcinoma cells (SW620). Description: CCK8 cytotoxicity assay, SW620. Type of data set: cell-based. As to conditions: CCK8, 48 h, carcinoma cell line.
From the text: as §1, §2

Data set [4] has as its system human osteosarcoma cells (U2OS). As to the kind of experiment: CCK8 cytotoxicity assay, U2OS. Type of data set: cell-based. As to conditions: CCK8, 48 h, carcinoma cell line.
From the text: as §1, §2

In data set [5] the test system is African green monkey kidney vero cells (Vero). As to the kind of experiment: CCK8 cytotoxicity assay, Vero. Format: cell-based. As to conditions: CCK8, 48 h, normal tissue cell line.
From the text: as §1, §2

For data set [6], the target named is T1, MTH1 (Homo sapiens, UniProt P36639). Description: Enzyme inhibition assay (8-oxo-dGTP hydrolysis, HPLC). As to conditions: 8-oxo-dGTP 25 μM, purified MTH1. Type of data set: biochemical. Details: hexa-histidine (His6) (N, cleaved yes); made in house; host or cells: E. coli BL21 Star. How it is done:
Microscale thermophoresis method (MST) was employed to assay the binding affinity between the compounds and MTH1. This technology can quantify protein-protein interactions or protein-small molecule interactions with high sensitivity through detecting fluorescent changes of molecules during thermophoresis.
To identify the efficacy of the eight compounds, an enzyme inhibition assay was carried out. […] Then the reaction was stop by the addition of 20 μL ice-cold Na2EDTA (50 mM). The reaction mixture was centrifugated at 15000 rpm at 4°C for 10 min. 20 μL of supernatant was injected on an HPLC column (Ultimate AQ-C18 RP-18e, 250 mm × 4.6 mm × 5 μm), and eluted isolate with 100 mM Na2HPO4-NaOH (pH 5.5)/MeOH 95:5 with flow rate 1 mL/min at column room of 30°C. […] Measurements were done in triplet, and IC50 values were calculated to compare the efficiency of various compounds.

Data set [7] in a line: CCK8 cytotoxicity assay, Lo2. Type of data set: cell-based, human. The settings on record: human, Lo2 human hepatic cells (normal tissue cell line), CCK8, 48 h.
From the text: as §1, §2

Data set [8] addresses T1, MTH1. Description: Microscale thermophoresis (MST) binding assay.
Procedure: Microscale thermophoresis method (MST) was employed to assay the binding affinity between the compounds and MTH1. […] The dissociation constant Kd values were automatically calculated by using the NT Analysis software (Nano Temper Technologies, München, Germany).
Recombinant human MTH1 was labeled with the Monolith NT™ Protein Labeling Kit RED (Cat#L001) according to the supplied labeling protocol [32]. Labelled MTH1 was kept constant at 100 nM, while all samples tested were diluted in a 20 mM HEPES (pH 7.5) and 0.05 (v/v) % Tween-20. Compounds were diluted in 12 dilution steps covering the range from 500 μM to 200 nM. After 10 min incubation at room temperature about 37°C, samples were loaded into Monolith™ standard-treated capillaries and the thermophoresis was measured at 25°C after 30 min incubation on a Monolith NT.115 instrument (NanoTemper Technologies, München, Germany). Laser power was set to 20% using 30 seconds on-time. The LED power was set to 100%. The dissociation constant Kd values were fitted by using the NTAnalysis software (NanoTemper Technologies, München, Germany). The Kd value of the binding was obtained in two ways. The first way was calculated by thermophoresis curve when there was no fluorescent change during the initial fluorescence scanning. The second way was calculated from the initial fluorescence scanning curve when compounds bound in the sites which directly interfered the fluorescence.
A short description of data set [9]: CCK8 cytotoxicity assay, Vero. Format: cell-based, African green monkey. The settings on record: African green monkey, Vero kidney cells (normal tissue cell line), CCK8, 48 h.
From the text: as §1, §2

Setting [10] is: Homo sapiens, Ovarian carcinoma cell.

A value given as a limit tells only on which side of the number the result lay.

The term IC50 denotes the concentration at which inhibition is half-maximal. For the compound `C[C@H](Oc1cc(-c2cnn(C3CCNCC3)c2)cnc1N)c1c(Cl)ccc(F)c1Cl` [(S)-crizotinib, reference compound], the IC50 is 26 ± 1.2 µM in [1]; 9.09 ± 1.06 µM in data set [2]; 17.5 ± 1.11 µM in data set [3]; 32.3 ± 1.28 µM in [4]; 16.7 ± 1.15 µM in [5].

A word on the Kd: it is a measure of binding affinity in units of concentration. As to `CO[C@@]1(c2cc(O)cc(O)c2)C=C(CCCC(CO)CC/C=C(\C)COC(=O)/C=C/c2ccc(O)cc2)C(=O)O1` (stereo partly drawn) [Compound 2, (5S)-3-{9-[(E)-coumaroyl]-4-hydroxymethyl-8-methyl-7-nonene}-5-(3,5-dihydroxyphenyl)-5-methoxy-2(5H)-furanone], the concentration for half-maximal inhibition (IC50) amounted to 11 ± 1.03 µM against MTH1 [6]; 76.8 ± 1.09 µM in [2] (setting [10]); 104 ± 1.07 µM in [3] (Homo sapiens, SW-620); 54.2 ± 1.1 µM in data set [4] (Homo sapiens, U2OS). For the same compound, the results for the 50% inhibitory concentration (IC50) at 48 h in data set [7] and in [9] were > 300 µM and 260.4 ± 1.16 µM, respectively. At MTH1 [8], this compound displayed an equilibrium dissociation constant (Kd) of 2.38 ± 0.663 µM.

With `C/C(=C\CCC(CO)CCCC1=C[C@H](c2cc(O)ccc2O)OC1=O)COC(=O)/C=C/c1ccc(O)cc1` (stereo partly drawn) [Compound 3, (5R)-3-{9-[(E)-coumaroyl]-4-hydroxymethyl-8-methyl-7-nonene}-5-(2,5-dihydroxyphenyl)-2(5H)-furanone], the IC50 on MTH1 [6] turned out to be 22.9 ± 1.04 µM; in data set [2] (setting [10]), 90.6 ± 1.12 µM; in [3] (Homo sapiens, SW-620), 70.9 ± 1.08 µM; in [4] (Homo sapiens, U2OS), 73.2 ± 1.24 µM. Also, the IC50 at 48 h in [7] and in [9] was > 300 µM each time. The same compound showed a Kd on MTH1 [8] of 246 ± 38.7 µM.

Take `C/C(=C\CCC(CO)CCCC1=C[C@@H](c2cc(O)ccc2O)OC1=O)COC(=O)/C=C/c1ccc(O)cc1` (stereo partly drawn) [Compound 4, (5S)-3-{9-[(E)-coumaroyl]-4-hydroxymethyl-8-methyl-7-nonene}-5-(2,5-dihydroxyphenyl)-2(5H)-furanone]: the IC50 at MTH1 [6] came out at 22.9 ± 1.07 µM; in data set [2] (setting [10]), 64.2 ± 1.28 µM; in data set [3] (Homo sapiens, SW-620), 56.5 ± 1.15 µM; in data set [4] (Homo sapiens, U2OS), 66.4 ± 1.11 µM. Moreover, the values for the IC50 at 48 h in data set [7] and in [9] were 279.1 ± 2.17 µM and > 300 µM, respectively. For the same compound, on MTH1 [8], binding was characterised by a dissociation constant (Kd) of 4.63 ± 0.519 µM.

Turning to `CO[C@]1(c2cc(O)ccc2O)C=C(CCCC(CO)CC/C=C(\C)COC(=O)/C=C/c2ccc(O)cc2)C(=O)O1` (stereo partly drawn) [Compound 5, (5R)-3-{9-[(E)-coumaroyl]-4-hydroxymethyl-8-methyl-7-nonene}-5-(2,5-dihydroxyphenyl)-5-methoxy-2(5H)-furanone], the half-maximal inhibitory concentration (IC50) against MTH1 [6] was found to be 16.3 ± 1.03 µM; in data set [2] (setting [10]) it was 80.1 ± 3.56 µM; in [4] (Homo sapiens, U2OS), 64.4 ± 1.08 µM. Moreover, the 50% inhibitory concentration (IC50) at 48 h in [7] and in [9] was > 300 µM each time. At MTH1 [8], this compound displayed a Kd of 296 ± 13.3 µM.

As for `CO[C@@]1(c2cc(O)ccc2O)C=C(CCCC(CO)CC/C=C(\C)COC(=O)/C=C/c2ccc(O)cc2)C(=O)O1` (some centres unmarked) [Compound 6], the IC50 amounted to 8.62 ± 1.03 µM against MTH1 [6]; 37.3 ± 3.56 µM in data set [2] (setting [10]); 53.7 ± 1.06 µM in data set [3] (Homo sapiens, SW-620); 57.8 ± 1.07 µM in [4] (Homo sapiens, U2OS). The IC50 at 48 h in data set [7] and in [9] was > 300 µM in each case. The compound further came in with a Kd on MTH1 [8] of 113 ± 25.4 µM.

With `CO[C@]1(c2cc(O)cc(O)c2)C=C(CC/C=C(\CO)CC/C=C(\C)COC(=O)/C=C/c2ccc(O)cc2)C(=O)O1` [Compound 7], the IC50 against MTH1 [6] came out at 28.5 ± 1.05 µM; in data set [2] (setting [10]) it was 74.5 ± 1.17 µM; in data set [3] (Homo sapiens, SW-620) it was 101 ± 1.07 µM; in [4] (Homo sapiens, U2OS) it was 96.3 ± 1.13 µM. The half-maximal inhibitory concentration (IC50) at 48 h in [7] and in data set [9] was > 300 µM each time. This compound also showed a Kd at MTH1 [8] of 103 ± 32.1 µM.

Turning to `CO[C@@]1(c2cc(O)cc(O)c2)C=C(CC/C=C(\CO)CC/C=C(\C)COC(=O)/C=C/c2ccc(O)cc2)C(=O)O1` [Compound 8], the concentration for half-maximal inhibition (IC50) against MTH1 [6] is 26.6 ± 1.03 µM; in [2] (setting [10]) it was 60.9 ± 1.34 µM; in [3] (Homo sapiens, SW-620), 55.2 ± 1.16 µM; in data set [4] (Homo sapiens, U2OS) it was 95.4 ± 1.05 µM. Also, the IC50 at 48 h in data set [7] and in data set [9] was > 300 µM each time. In addition, the affinity at MTH1 [8], expressed as Kd, was 210 ± 42.7 µM.
